No end group written: not given here.

What all share (assay type): in vivo, Sprague-Dawley rats
For experiment [1], the system named is rats with mild-moderate TBI. The experiment in a line: BrdU/MAP-2 double fluorescence staining, neurogenesis after controlled cortical impact TBI. To be noted: 3 mg/kg i.v. at 24 h and 48 h post injury; 25 days post injury; vs saline controls, p<0.05, n=7. The source says: (§1) A large part of the functional recovery that occurs after brain injury is due to neurogenesis, and brain plasticity caused by anatomical and functional reorganization of the CNS. To determine the effect of SEQ ID NO. 5 on neurogenesis, the brain blocks containing the hippocampus were processed for vibratome sections (100 μm) followed by double fluorescence staining for endogenous cellular proliferation {BrdU positive cells (red) and MAP 2 (green) to identify newborn neurons in the ipsilateral dentate gyrus (DG) of the hippocampus. Five sections with 100-μm intervals from the dorsal dentate gyms were used for immunohistochemical staining with the same antibody. Sections were blocked in a Tris-buffered saline solution containing 5% normal goat serum, 1% BSA and 0.05% Tween-20. […] Quantitative measurements of immunostaining were performed by an observer blinded to the individual treatment status of the animals. […] The cells with BrdU that clearly localized to the nucleus were counted as BrdU-positive cells. […] The fluorescent images were analyzed with a Bio-Rad MRC 1024 (argon and krypton) laser-scanning confocal imaging system mounted onto a Zeiss microscope (Bio-Rad, Cambridge, Mass.). […]
A controlled cortical impact (CCI) device was used to induce mild-moderate TBI. […] Velocity was measured with a linear velocity displacement transducer. […]

Experiment [2] deals with rats with mild-moderate TBI. The experiment in a line: Endothelial barrier antigen (EBA) staining, vascular density after controlled cortical impact TBI. To be noted: 3 mg/kg i.v. at 24 h and 48 h post injury; 25 days after TBI; vs saline-treated rats, p<0.05, n=7.
Text: as §1, with “antibody.” for “antibody. Sections were blocked in a Tris-buffered saline solution containing 5% normal goat serum, 1% BSA and 0.05% Tween-20.”
Endothelial barrier antigen (EBA)-staining has been used to identify vascular structure in the brain after ischemic brain injury. […] 5-therapy on vessel proliferation and vascular density, quantitative measurement of Endothelial Barrier Antigen (EBA) staining was performed. […]

Experiment [3] concerns rats with mild-moderate TBI. The experiment in a line: Modified foot-fault test after controlled cortical impact TBI. Particulars: 3 mg/kg i.v. at 24 h and 48 h post injury; up to 25 days after TBI; vs control group. The protocol:
(§2) A controlled cortical impact (CCI) device was used to induce mild-moderate TBI. Adult male (280-300 g) Sprague-Dawley rats (Harlan: Indianapolis, Ind.) were anesthetized intraperitoneally with xylazine (10 mg/kg body weight) and ketamine (40 mg/kg body weight). Rectal temperature was maintained at 37° C. using a feedback-regulated water-heating pad. The surgical area of the skull was prepared using germicidal povidone-iodine scrub followed by a 70% isopropyl alcohol rinse combinations, being careful to scrub from the center of the surgical site toward the periphery. Rats were placed in a stereotactic frame. […] Velocity was measured with a linear velocity displacement transducer. […] Neurological functional outcome was measured by the modified neurological severity score (mNSS), Morris Water Maze (MWM) and foot-fault test. mNSS is a composite of the motor (muscle status, abnormal movement), sensory (visual, tactile and proprioceptive) and reflex tests. […] If the animal reached the platform within 90 sec, the percentage of time traveled within the NE (correct) quadrant was calculated relative to the total amount of time spent swimming before reaching the platform and employed for statistical analysis. […] Rats were monitored continuously while in the tank. […] When animals inaccurately place a limb, the limb falls through one of the openings in the grid, which is counted as a foot fault. […]

For experiment [4], the system named is rats with mild-moderate TBI. The experiment in a line: Modified neurological severity score (mNSS) after controlled cortical impact TBI. To be noted: 3 mg/kg i.v. at 24 h and 48 h post injury; Days 14-25 after TBI; vs saline-treated group, P<0.05. The protocol:
as §2

Experiment [5] has as its system rats with mild-moderate TBI. The experiment in a line: BrdU immunostaining, cell proliferation after controlled cortical impact TBI. To be noted: 3 mg/kg i.v. at 24 h and 48 h post injury; examined 25 days after TBI; vs saline controls, p<0.05, n=7. The protocol: BrdU, an analog of thymidine, can be incorporated into the newly synthesized DNA of replicating cells during the S phase of the cell cycle, substituting for thymidine during DNA replication. BrdU immunostaining is commonly used to detect cell proliferation. To determine the effect of SEQ ID NO. 5 (3 mg/kg, i.v.) or saline on cell proliferation, BrdU (100mg/kg) was injected i.p. daily starting at day 1 after mild-moderate TBI and continued for 10 days after TBI to label newly generated cells. Twenty-five days after TBI, the animals were anesthetized and sacrificed. The brains were fixed in 4% paraformaldehyde and cut into seven equally spaced 2-mm coronal blocks using a rat brain matrix. […] 5-treated rats examined at 25 days after TBI, compared to the saline controls. […]
A large part of the functional recovery that occurs after brain injury is due to neurogenesis, and brain plasticity caused by anatomical and functional reorganization of the CNS. […] 5 on neurogenesis, the brain blocks containing the hippocampus were processed for vibratome sections (100 μm) followed by double fluorescence staining for endogenous cellular proliferation {BrdU positive cells (red) and MAP 2 (green) to identify newborn neurons in the ipsilateral dentate gyrus (DG) of the hippocampus. […] Quantitative measurements of immunostaining were performed by an observer blinded to the individual treatment status of the animals. […]

For experiment [6], the system named is rats with mild-moderate TBI. The experiment in a line: Morris Water Maze (MWM) after controlled cortical impact TBI. To be noted: 3 mg/kg i.v. at 24 h and 48 h post injury; Days 23 to 25 post-injury; vs saline-treated group, P<0.05. The protocol:
as §2

Turning to “DPMSSTYIEELGKREVTIPPKYVALLPAVLLALLAP [SEQ ID NO. 5]”, the “number of newborn neurons (BrdU/MAP-2 positive) in the ipsilateral DG, per mm^2” value in experiment [1] was “significantly increased”. Moreover, the “density (vessels/mm2) of EBA positive vessels in the injured cortex area” value in experiment [2] is given as “significantly increased”. For the same sequence, in experiment [3], the “neurological function assessed by the footfault test” value is “no significant improvement”. Further, in experiment [4], the “sensorimotor scores (mNSS)” value was “significantly improved”. The “number of BrdU-positive cells in the ipsilateral cortex and hippocampus” value in experiment [5] was “significantly increased”. Also, in experiment [6], the “spatial learning and memory retention (percentage of time spent in the correct quadrant, MWM)” value was “significant improvement”.

For the origin of these results see US20210145930A1, “MULTIPLE LAYER ARTICLE WITH INTERACTIVE REINFORCEMENTS LINEAR RIBBON FIBER REINFORCEMENT FOR COMPOSITE FORMS” (NeuroTheranostics, Inc., priority 2018, published 2021).
